{"source": "patent US4916146A", "about": "“Amino acid imide derivatives, usage thereof, and medicinal composition containing the same” (Zeria Pharmaceutical Co., Ltd., priority 1987, dated 1990)", "key": {"[1]": {"target": "prolyl endopeptidase from Flavobacterium (Elizabethkingia meningoseptica, UniProt P27028)", "sequence (P27028 21-705)": "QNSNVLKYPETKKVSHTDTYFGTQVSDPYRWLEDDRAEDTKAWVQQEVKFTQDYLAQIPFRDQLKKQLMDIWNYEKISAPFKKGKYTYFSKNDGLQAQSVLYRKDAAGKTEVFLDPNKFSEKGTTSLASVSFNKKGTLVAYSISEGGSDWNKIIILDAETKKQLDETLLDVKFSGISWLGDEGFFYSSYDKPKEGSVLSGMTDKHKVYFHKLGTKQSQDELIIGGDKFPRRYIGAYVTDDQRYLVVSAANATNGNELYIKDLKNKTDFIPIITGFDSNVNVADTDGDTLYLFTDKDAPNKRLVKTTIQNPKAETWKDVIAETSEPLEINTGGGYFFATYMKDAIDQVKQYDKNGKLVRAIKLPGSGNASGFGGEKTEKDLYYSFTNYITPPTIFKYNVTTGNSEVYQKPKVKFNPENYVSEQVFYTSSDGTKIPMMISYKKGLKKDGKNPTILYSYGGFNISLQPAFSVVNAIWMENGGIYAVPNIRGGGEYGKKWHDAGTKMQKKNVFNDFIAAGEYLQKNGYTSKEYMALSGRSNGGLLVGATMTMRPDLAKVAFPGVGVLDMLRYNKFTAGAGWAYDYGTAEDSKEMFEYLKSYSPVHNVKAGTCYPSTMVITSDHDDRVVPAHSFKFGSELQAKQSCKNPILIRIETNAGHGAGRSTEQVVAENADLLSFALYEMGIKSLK", "experiment": "biochemical", "experimental": "Inhibitory activity of the compound of formula (I) against prolyl endopeptidase from Flavobacterium was measured according to the method of Yoshimoto and Tsuru [Arg.\nProlyl endopeptidase was dissolved with 20 mM Tris-HCl buffer (pH 7.4) at a concentration of 0.4 unit/ml. This solution (100 μl) was added to 890 μl of the same buffer, and the solution thus obtained was left at room temperature for 10 minutes. (This solution is herein referred to as an \"Enzyme solution\"). This buffer (990 μl) was used as a \"Correction solution\".\nTest compound dissolved with dimethylsulfoxide (10 μl) was added to the Enzyme solution. The solution was stirred and allowed to stand at room temperature for 10 minutes. Separately, 10 μl of dimethylsulfoxide was added to Enzyme solution and was processed in the same manner. The solution thus obtained was served as a \"Control solution\". The same procedure was carried out on the Correction solution.\nEnzyme activities were determined by subtracting the blank value, i.e., the absorbance measured on the Correction solution, from the absorbance of each of the sample solutions or of the Control solution."}, "ICR male mice [2]": {"system": "ICR male mice", "experiment": "Anti-amnesic activity (cycloheximide-induced amnesia, step-down passive avoidance)", "format": "in vivo", "settings": "for Amnesic Mice (%): latency shorter than 150 seconds at 24 hours", "experimental": "Compounds of this invention were checked with respect to their abilities to prevent the inhibition of long-term memory fixation by cycloheximide which is an amnesia inducing compound. ICR male mice, age 6 to 7 weeks, were used for the test. The test was carried out using a step-down passive avoidance apparatus.\nOn the first day, a 5-minute training was given to each mouse which was placed on a rubber platform. Every time when the mouse stepped down on the grid floor, a 0.2 mA electric foot shock was applied until it stepped up on the platform. This motion of the mouse was repeated for 5 minutes.\nAdministration of cycloheximide and the compound of this invention was performed immediately after the training. Cycloheximide was dissolved in a saline and subcutaneously administered to the mouse. The compound of this invention, suspended in a sesame oil/Tween 80/5% gum arabic (3/1/96; by volume), was intraperitoneally administered. Aniracetam suspended in 5% gum arabic was orally administered. Twenty-four hours after the training, a retention test was performed, which consisted of placing the mouse on the platform again and measuring the latency of the mouse to step down on the grid floor. The amnesia ratio for each group of mice was determined as the percentage of amnesic mice taken latency shorter than 150 seconds.\n- wherein %A is a percentage of amnesic mice, t denotes a test compound,\nstands for cycloheximide, v stands for vehicle, and s stands for saline"}, "ICR male mice [3]": {"system": "ICR male mice", "experiment": "Anti-hypoxic activity (survival time under 4% O2 + 96% N2)", "format": "in vivo", "settings": "30 minutes before mixed gas, control = 100", "experimental": "Groups of ICR male mice, age 4 to 5 weeks, each group consisting of 10 mice and each mouse having been fasted for 24 hours, were used for the test. Mice were placed in a transparent desiccator (diameter: 19 cm, height: 30 cm) made of synthetic resin and having 2 bulbs, one at the upper portion and the other at the lower portion, for replacing the gas therein. A mixed gas (4% O2 +96% N2) was fed from the upper bulb at a rate of 10 l/min to measure the period of time until respiratory arrest took place for each mouse. The time measured was taken as the time of survival.\nEach tested compound suspended in 5% gum arabic solution was intraperitoneally administered 30 minutes before the start of the mixed gas feeding. A group of mice to which only 5% gum arabic solution was intraperitoneally administered was used as a control.\nCompounds, not sufficiently suspended in 5% gum arabic, were dissolved with Tween 80 so that the final concentration of the detergent was 3%, followed by the addition of 5% gum arabic. The anti-hypoxic activity was determined according to the following formula: [formula]"}, "Fisher 344 male rats": {"system": "Fisher 344 male rats", "experiment": "Toxicity experiment, oral administration", "format": "in vivo", "settings": "period of 14 days; for Mortality: 500, 1,000, 1,500 and 2,000 mg/kg orally in propylene glycol", "text": "Groups of Fisher 344 male rats, age 6 weeks, each group consisting of 5 rats were used for the test."}, "ICR male mice [4]": {"system": "ICR male mice", "experiment": "Toxicity experiment, intraperitoneal administration", "format": "in vivo", "settings": "300 mg/kg intraperitoneally in 5% gum arabic, period of 7 days", "experimental": "Groups of ICR male mice, age 4 to 5 weeks, each group consisting of 10 mice were used for the test. A dose of 300 mg/kg of each compound prepared in Examples 1 and 2 hereinbelow suspended in 5% gum arabic was intraperitoneally administered to each group of mice."}, "[5]": {"target": "T1, prolyl endopeptidase prepared from canine brains (Canis lupus familiaris, UniProt A0A8I3N6C8)", "T1 construct": "Prolyl endopeptidase was prepared from canine brains; from tissue; host or cells: canine brain", "T1 sequence (A0A8I3N6C8 1-710)": "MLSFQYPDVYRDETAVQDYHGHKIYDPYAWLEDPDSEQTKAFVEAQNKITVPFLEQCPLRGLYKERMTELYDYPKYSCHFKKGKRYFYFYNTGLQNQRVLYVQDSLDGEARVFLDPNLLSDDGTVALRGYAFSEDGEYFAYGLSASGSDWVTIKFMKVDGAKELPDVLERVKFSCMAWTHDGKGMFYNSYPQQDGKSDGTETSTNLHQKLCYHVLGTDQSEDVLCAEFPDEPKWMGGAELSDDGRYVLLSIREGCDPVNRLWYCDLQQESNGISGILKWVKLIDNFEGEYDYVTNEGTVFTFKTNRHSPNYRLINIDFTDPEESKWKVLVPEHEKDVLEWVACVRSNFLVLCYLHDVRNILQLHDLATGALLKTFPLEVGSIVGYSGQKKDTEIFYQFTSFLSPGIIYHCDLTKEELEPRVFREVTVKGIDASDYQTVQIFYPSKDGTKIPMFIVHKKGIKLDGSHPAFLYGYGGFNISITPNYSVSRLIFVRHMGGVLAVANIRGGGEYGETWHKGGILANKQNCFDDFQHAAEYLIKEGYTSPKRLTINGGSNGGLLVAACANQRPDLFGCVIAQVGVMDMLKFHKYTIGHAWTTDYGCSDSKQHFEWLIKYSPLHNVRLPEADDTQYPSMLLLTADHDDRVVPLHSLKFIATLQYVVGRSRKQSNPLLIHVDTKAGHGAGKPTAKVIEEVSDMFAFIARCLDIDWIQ", "experiment": "Inhibitory activity against prolyl endopeptidase from brain", "format": "biochemical", "settings": "substrate carbobenzoxyglycylprolyl paranitroanilide, 37° C., 10 minutes, read-out: Inhibition Potency, IC50", "experimental": "Buffer A: 20 mM Tris-HCl buffer (pH 7.0)\nBuffer B: a solution containing 0.1% gelatin, 1 mM EDTA, and 1 mM mercapto ethanol in buffer solution A\nProlyl endopeptidase was dissolved with the Buffer B at a concentration of 0.4 unit/ml. This solution (50 μl) was added to 940 μl of the Buffer A, and the solution thus obtained was left at 37° C. for 10 minutes (This solution is herein referred to as \"Enzyme solution\"). A mixed solution of 50 μl of the Buffer B and 940 μl of Buffer A was used as a \"Correction solution\".\nA test compound was dissolved with dimathylsulfoxide (10 μl) was added to the Enzyme solution. The mixture was stirred and allowed to stand at 37° C. for 10 minutes. Separately, 10 μl of dimethylsulfoxide was added to the Enzyme solution and was processed in the same manner. The solution thus obtained was served as a \"Control solution\". The same procedure was carried out on the Correction solution.\nOne hundred micoliters of 2.5 mM carbobezoxyglycylprolyl paranitroanilide, which was dissolved with 40% dioxane, was added to each of the above 3 solutions, i.e., the Enzyme solution with the test compound, Control solution, and Correction solution, and the reaction was carried out at 37° C. for 10 minutes.\nEnzyme activities were determined by subtracting the blank value, i.e., the absorbance measured on the Correction solution, from the absorbance of each of the sample solutions and of the Control solution."}, "[6]": {"settings": "30 mg/kg po + cycloheximide 200 mg/kg sc"}, "[7]": {"settings": "60 mg/kg po + cycloheximide 200 mg/kg sc"}, "[8]": {"settings": "read-out: Inhibition Potency, IC50"}, "[9]": {"settings": "1 mg/kg ip + cycloheximide 200 mg/kg sc"}, "[10]": {"settings": "3 mg/kg ip + cycloheximide 200 mg/kg sc"}}, "note": "Read-outs that look alike come from different tables or passages of the source."}
{"compound": "COc1ccc(C(=O)N2CCCC2=O)cc1", "note": "[Aniracetam, reference compound]", "values": [{"measurement": "IC50", "setting": "[1]", "result": "> 1000", "unit": "µM"}, {"measurement": "Amnesia Reversal (%)", "setting": "ICR male mice [2]; [6]", "result": 22.8, "unit": "%"}, {"measurement": "Amnesic Mice (%)", "setting": "ICR male mice [2]; [6]", "result": 42.9, "unit": "%"}, {"measurement": "Amnesia Reversal (%)", "setting": "ICR male mice [2]; [7]", "result": 7.2, "unit": "%"}, {"measurement": "Amnesic Mice (%)", "setting": "ICR male mice [2]; [7]", "result": 50.0, "unit": "%"}, {"measurement": "Anti-hypoxic Activity (%)", "setting": "ICR male mice [3]; dose 100 mg/kg ip", "result": 115, "unit": "%"}, {"measurement": "Anti-hypoxic Activity (%)", "setting": "ICR male mice [3]; dose 300 mg/kg ip", "result": 159, "unit": "%"}]}
{"compound": "CC(C)(CO)[C@@H](O)C(=O)NCCCC(=O)O", "note": "[Calcium hopantenate, reference compound]", "values": [{"measurement": "IC50", "setting": "[1]; prolyl endopeptidase from Flavobacterium, substrate carbobenzoxyglycylprolyl paranitroanilide, 37° C., 10 minutes, read-out: Inhibition Potency, IC50", "result": "> 1000", "unit": "µM"}, {"measurement": "Anti-hypoxic Activity (%)", "setting": "ICR male mice [3]; dose 250 mg/kg ip", "result": 135, "unit": "%"}]}
{"compound": "O=C([C@@H]1CSCN1C(=O)CCCc1ccccc1)N1CCSC1", "note": "[Compound of Ex. 1, N-(4-phenylbutanoyl)-L-thioprolylthiazolidineimide]", "values": [{"measurement": "IC50", "setting": "[1]; [8]", "result": 0.087, "unit": "µM"}, {"measurement": "Mortality", "setting": "Fisher 344 male rats", "result": "No fatal problem"}, {"measurement": "Mortality", "setting": "ICR male mice [4]", "result": "No fatal problem"}, {"measurement": "IC50", "setting": "[5]", "result": 0.017, "unit": "µM"}, {"measurement": "Amnesia Reversal (%)", "setting": "ICR male mice [2]; [9]", "result": 28.2, "unit": "%"}, {"measurement": "Amnesic Mice (%)", "setting": "ICR male mice [2]; [9]", "result": 52.9, "unit": "%"}, {"measurement": "Amnesia Reversal (%)", "setting": "ICR male mice [2]; [10]", "result": 74.8, "unit": "%"}, {"measurement": "Amnesic Mice (%)", "setting": "ICR male mice [2]; [10]", "result": 26.7, "unit": "%"}, {"measurement": "Anti-hypoxic Activity (%)", "setting": "ICR male mice [3]; dose 100 mg/kg ip", "result": 124, "unit": "%"}]}
{"compound": "O=C([C@@H]1CCCN1C(=O)CCCc1ccccc1)N1CCSC1", "note": "[Compound of Ex. 2, N-(4-phenylbutanoyl)-L-prolylthiazolidineimide]", "values": [{"measurement": "IC50", "setting": "[1]; [8]", "result": 0.15, "unit": "µM"}, {"measurement": "Mortality", "setting": "Fisher 344 male rats", "result": "No fatal problem"}, {"measurement": "Mortality", "setting": "ICR male mice [4]", "result": "No fatal problem"}, {"measurement": "IC50", "setting": "[5]", "result": 0.041, "unit": "µM"}, {"measurement": "Anti-hypoxic Activity (%)", "setting": "ICR male mice [3]; dose 100 mg/kg ip", "result": 160, "unit": "%"}]}
{"compound": "O=C([C@@H]1CSCN1C(=O)CCCc1ccccc1)N1CCCC1", "note": "[Compound of Ex. 3, N-(4-phenylbutanoyl)-L-thioprolylpyrrolidineimide]", "values": [{"measurement": "Mortality", "setting": "Fisher 344 male rats", "result": "No fatal problem"}, {"measurement": "IC50", "setting": "[5]", "result": 0.031, "unit": "µM"}, {"measurement": "Anti-hypoxic Activity (%)", "setting": "ICR male mice [3]; dose 100 mg/kg ip", "result": 169, "unit": "%"}]}
{"compound": "O=C([C@H]1CCCN1C(=O)CCCc1ccccc1)N1CCSC1", "note": "[Compound of Ex. 4, N-(4-phenylbutanoyl)-D-prolylthiazolidineimide]", "values": [{"measurement": "Anti-hypoxic Activity (%)", "setting": "ICR male mice [3]; dose 100 mg/kg ip", "result": 164, "unit": "%"}]}
{"compound": "COC1=C(OC)C(=O)C(CCCCCCCCCCO)=C(C)C1=O", "note": "[Idebenone, reference compound]", "values": [{"measurement": "Anti-hypoxic Activity (%)", "setting": "ICR male mice [3]; dose 100 mg/kg ip", "result": 140, "unit": "%"}]}
{"compound": "O=C([C@@H]1CCCN1C(=O)CCCc1ccccc1)N1CCCC1", "note": "[SUAM 1221, reference compound]", "values": [{"measurement": "Rats died out of the 5 rats", "setting": "Fisher 344 male rats; 1,500 mg/kg orally", "result": "one"}, {"measurement": "Rats died out of the 5 rats", "setting": "Fisher 344 male rats; 2,000 mg/kg orally", "result": 2}]}
